In PMC10778980, “Profiling Novel Quinuclidine-Based Derivatives as Potential Anticholinesterase Drugs: Enzyme Inhibition and Effects on Cell Viability” (International Journal of Molecular Sciences, 2023):
Entries after “also recorded” stand apart in the source; their conditions may differ. Where two headings read alike, the source gives them in different places.

What was measured:
human BChE = target: T1, human BChE (Homo sapiens, UniProt P06276); assay: biochemical
T1 construct: Plasma was removed and used as a source of BChE; from tissue; host or cells: human blood plasma from a healthy volunteer
T1 sequence (P06276 29-602): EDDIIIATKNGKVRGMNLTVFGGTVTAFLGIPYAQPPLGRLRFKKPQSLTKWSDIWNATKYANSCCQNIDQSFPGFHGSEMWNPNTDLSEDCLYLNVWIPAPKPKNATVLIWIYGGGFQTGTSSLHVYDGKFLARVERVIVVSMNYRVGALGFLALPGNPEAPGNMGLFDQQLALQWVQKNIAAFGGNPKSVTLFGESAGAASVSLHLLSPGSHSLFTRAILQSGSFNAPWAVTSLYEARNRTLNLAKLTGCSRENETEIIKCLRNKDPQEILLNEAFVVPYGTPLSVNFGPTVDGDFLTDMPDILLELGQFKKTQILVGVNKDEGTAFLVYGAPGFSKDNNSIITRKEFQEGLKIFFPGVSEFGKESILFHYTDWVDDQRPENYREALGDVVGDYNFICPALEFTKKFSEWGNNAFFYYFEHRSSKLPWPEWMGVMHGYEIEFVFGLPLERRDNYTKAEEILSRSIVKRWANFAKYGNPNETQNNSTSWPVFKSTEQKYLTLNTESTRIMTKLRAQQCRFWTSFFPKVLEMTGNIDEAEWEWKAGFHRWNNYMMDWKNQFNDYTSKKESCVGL
Description: (§1) Cholinesterase substrate acetylthiocholine (ATCh) and the thiol reagent 5,5′-dithiobis(2-nitrobenzoic acid) (DTNB) for the enzyme activity measurement were purchased from Sigma-Aldrich (St. Louis, MO, USA). The sources of human AChE and BChE were native erythrocytes and plasma, respectively, obtained from the blood of a healthy volunteer and in accordance with the approval of the Ethics Committee of the Institute for Medical Research and Occupational Health (approval number: 100-21/23-6). Erythrocytes and plasma were isolated from the whole blood and prepared according to a previously published procedure. Namely, venous blood was collected into a heparinized tube and centrifuged (at 4 °C, 20 min on 2500 rpm, Eppendorf centrifuge 5702R) to separate plasma from the erythrocytes. Plasma was removed and used as a source of BChE, while erythrocytes were washed twice with the 0.1 M sodium phosphate buffer, pH 7.4, in a volume corresponding to the initial volume of the whole blood. Both plasma and erythrocytes were frozen at −20 °C until use. Quinuclidine compounds were dissolved in dH2O as 10 or 100 mM; exceptionally, 3-hydroxyimino compounds with longer chains (C12−C16) were dissolved in DMSO as 100 mM solutions. Stock solutions were kept at 4 °C until use. Further dilutions were made in distilled water.
(§2) The reversible inhibition experiments followed a previously published procedure. Namely, the enzyme activity was measured in the presence of a wide range of quinuclidine compound concentrations and in the substrate range from 0.1 to 0.5 mM to confirm the type of compound binding. The activity was assayed following the Ellman’s procedure, with the modification in the wavelength used for detection of the TNB anion in the case of AChE activity measurement due to the interference of the hemoglobin, and according to Worek et al.. The assay was performed in 96-well plates on an Infinite M200PRO plate reader (Tecan Austria GmbH, Salzburg, Austria) at 25 °C. Each concentration was tested in triplicate or quadruplicate on each plate. The inhibition mixture contained 0.1 M sodium phosphate buffer, pH 7.4, enzyme (AChE or BChE), quinuclidine compound (0.2–400 μM final), DTNB (0.3 mM final), and ATCh (from 0.1 to 0.5 mM final) to start the reaction. The increase in absorbance was read at 436 nm for AChE and at 412 nm for BChE. The measured activity in the presence of compounds was corrected for the non-enzymatic hydrolysis of substrate ATCh, if detected. The reversible enzyme–quinuclidine complex dissociation constants (the inhibition constants) Ki were evaluated from the effect of the substrate concentration on the degree of inhibition according to the Hunter–Downs equation as described previously, taking into account only quinuclidine concentrations where 20–80% inhibition of the activity was observed.

HepG2 cells [1] = assay: Cytotoxicity assay (MTS) on HepG2; assay type: cell-based; conditions: Homo sapiens
Protocol: (§3) SH-SY5Y cells were grown in DMEM F12 (Sigma-Aldrich, St. Louis, MO, USA) supplemented with 15% (v/v) fetal bovine serum (FBS), 2 mM glutamine, and 1% (v/v) non-essential amino acids (NEAA). HepG2 cells were grown in EMEM supplemented with 10% (v/v) FBS, 2 mM glutamine, and 1% (v/v) non-essential amino acids NEAA. All media and supplements were purchased from Sigma-Aldrich, Steinheim, Germany.
(§4) The procedure followed a previously described protocol.

SH-SY5Y cells [2] = assay: Cytotoxicity assay (MTS) on SH-SY5Y; assay type: cell-based; conditions: Homo sapiens
Protocol: as §3, §4

human AChE = target: T2, human AChE (Homo sapiens, UniProt P22303); assay: Reversible inhibition of AChE (Ellman's procedure, Hunter–Downs evaluation); assay type: biochemical; conditions: for Ki: Ki ± standard error, 0.1, 0.2, 0.35 and 0.5 mM substrate ATCh, 25 °C, pH 7.4; for Ki (AChE)/Ki (BChE): selectivity ratio
T2 construct: The sources of human AChE and BChE were native erythrocytes and plasma, respectively; from tissue; host or cells: human erythrocytes from venous blood of a healthy volunteer
T2 sequence (P22303 32-617 isoform P22303-2 limits assumed): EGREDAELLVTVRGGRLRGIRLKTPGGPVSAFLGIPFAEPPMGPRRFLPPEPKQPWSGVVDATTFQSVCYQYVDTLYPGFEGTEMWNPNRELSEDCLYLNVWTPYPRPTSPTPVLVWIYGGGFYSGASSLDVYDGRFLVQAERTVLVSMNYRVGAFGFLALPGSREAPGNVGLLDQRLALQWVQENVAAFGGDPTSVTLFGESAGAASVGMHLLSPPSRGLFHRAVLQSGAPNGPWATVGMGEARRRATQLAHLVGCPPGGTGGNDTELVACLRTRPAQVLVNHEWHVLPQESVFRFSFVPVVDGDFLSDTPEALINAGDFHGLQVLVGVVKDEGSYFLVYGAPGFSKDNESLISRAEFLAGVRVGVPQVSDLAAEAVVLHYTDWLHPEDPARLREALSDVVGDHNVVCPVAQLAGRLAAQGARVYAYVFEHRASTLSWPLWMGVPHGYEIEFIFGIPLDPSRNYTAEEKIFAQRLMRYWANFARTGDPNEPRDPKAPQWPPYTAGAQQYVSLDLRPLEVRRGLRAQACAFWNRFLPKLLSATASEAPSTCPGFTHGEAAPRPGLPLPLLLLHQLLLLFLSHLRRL
Description: as §1, §2

HepG2 cells [3] = assay: Mitochondrial membrane potential (TMRE assay) on HepG2; assay type: cell-based, human; conditions: HepG2, 4 h exposure, LOAEL concentrations
Protocol: (§5) Human neuroblastoma SH-SY5Y (ECACC 94030304) and human hepatocyte carcinoma HepG2 (ECACC 85011430) were used to evaluate in vitro dose- and time-dependent different cell effects. The SH-SY5Y cell line was selected as it represents a well-established model for studying neuronal cells, while HepG2 hepatocytes represent a liver model as a major organ participating in the metabolism of diverse compounds [31, 61, 62]. SH-SY5Y cells were grown in DMEM F12 (Sigma-Aldrich, St. Louis, MO, USA) supplemented with 15% (v/v) fetal bovine serum (FBS), 2 mM glutamine, and 1% (v/v) non-essential amino acids (NEAA). HepG2 cells were grown in EMEM supplemented with 10% (v/v) FBS, 2 mM glutamine, and 1% (v/v) non-essential amino acids NEAA. All media and supplements were purchased from Sigma-Aldrich, Steinheim, Germany.
(§6) Mitochondrial membrane potential (ΔΨm) was determined using a cell-permeable, potential-sensitive cationic dye, tetramethylrhodamine ethyl ester perchlorate (TMRE, Cell Signaling Technology Europe, Leiden, The Netherlands). Cells were exposed for 4 h to derivatives 3–5 and 10–12. The procedure followed a previously described protocol. A concentration of 50 µM carbonyl cyanide 3-chlorophenylhydrazone (CCCP, Cell Signaling Technology Europe, Leiden, The Netherlands) was used as a positive control. Data were evaluated from at least three independent experiments (performed in duplicate) and presented as a normalized signal to the untreated control, according to the manufacturer’s calculation protocol.

SH-SY5Y cells [4] = assay: Mitochondrial membrane potential (TMRE assay) on SH-SY5Y; assay type: cell-based, human; conditions: 4 h exposure, LOAEL concentrations
Protocol: as §5, §6

SH-SY5Y cells [5] = assay: Cell membrane integrity (LDH release) on SH-SY5Y; assay type: cell-based, human; conditions: 4 h exposure, 12.5–200 µM
Protocol: as §5
(§7) Cell membrane integrity was determined after 4 h exposure to derivatives 3–5 and 10–12 by measuring the release of the intracellular lactate dehydrogenase (LDH), and the procedure followed a previously described protocol using The CytoTox-ONE™ Homogeneous Membrane Integrity Assay (Promega, Madison, WI, USA). Triton X-100 at a final concentration of 0.18% (v/v) (stock of 9% in water; Sigma-Aldrich, Steinheim, Germany) was used as a positive control to determine the maximal LDH release. Data were taken from at least two independent experiments (each treatment performed in duplicate) and plotted as a percentage of LDH release compared to the determined maximal LDH release, according to the manufacturer’s calculation protocol.

HepG2 cells [6] = assay: Cell membrane integrity (LDH release) on HepG2; assay type: cell-based, human; conditions: HepG2, 4 h exposure, 12.5–200 µM
Protocol: as §5, §7

[7] = HepG2, read-out: IC50 ± SE HepG2 1 h, 1 h exposure
[8] = HepG2, 4 h exposure, read-out: IC50 ± SE HepG2 4 h
[9] = HepG2, 24 h exposure, read-out: IC50 ± SE HepG2 24 h
[10] = 4 h exposure, read-out: IC50 ± SE SH-SY5Y 4 h
[11] = 24 h exposure, read-out: IC50 ± SE SH-SY5Y 24 h
[12] = read-out: IC50 ± SE SH-SY5Y 1 h, 1 h exposure
[13] = Ki ± standard error, 0.1, 0.2, 0.35 and 0.5 mM substrate ATCh, 25 °C, pH 7.4, read-out: Ki BChE

Compound	Ki (human BChE) [µM]	IC50 (HepG2 cells [1]; [7]) [µM]	IC50 (HepG2 cells [1]; [8]) [µM]	IC50 (HepG2 cells [1]; [9]) [µM]	IC50 (SH-SY5Y cells [2]; [10]) [µM]	IC50 (SH-SY5Y cells [2]; [11]) [µM]	IC50 (SH-SY5Y cells [2]; [12]) [µM]	Ki (human AChE) [µM]	Ki (AChE)/Ki (BChE) (human AChE)	Ki (human BChE; [13]) [µM]	Mitochondrial membrane potential (ΔΨm) (HepG2 cells [3])	Mitochondrial membrane potential (ΔΨm) (SH-SY5Y cells [4])	LDH release (SH-SY5Y cells [5])	LDH release (HepG2 cells [6])	times less efficient than donepezil (human AChE; AChE Ki compared to donepezil)
CCCCCCCC[N+]12CCC(CC1)C(=NO)C2.[Br-] [Compound 8, 1-octyl-3-hydroxyiminoquinuclidinium bromide]	37.9 ± 10.4	≥ 800	≥ 800	≥ 800	≥ 800	≥ 800	≥ 800	82.7 ± 3.5	2.2						
OC1C[N+]2(CCCCCCCC[N+]34CCC(CC3)C(O)C4)CCC1CC2 (centres unmarked) [Compound 6, 1,1′-(octano)bis(3-hydroxyquinuclidinium bromide)]		≥ 800	≥ 800	≥ 800	≥ 800	≥ 800	≥ 800	24 ± 1.1	1.9	12.9 ± 1					
CCCCCCCCCCCC[N+]12CCC(CC1)C(O)C2 (centres unmarked) [Compound 3]		135 ± 1	81 ± 1	66 ± 1	74 ± 1	56 ± 1	145 ± 1	13.2 ± 0.6	1.5	9 ± 0.8	decrease in the mitochondrial membrane potential	decrease in the mitochondrial membrane potential	significant LDH release	strongest effect; also recorded: significant LDH release	
CCCCCCCCCC[N+]12CCC(CC1)C(=NO)C2.[Br-] [Compound 9, 1-decyl-3-hydroxyiminoquinuclidinium bromide]	5.2 ± 1.1	≥ 800	≥ 800	≥ 800	≥ 800	≥ 800	≥ 800	23.8 ± 0.8	4.6						
CCCCCCCC[N+]12CCC(CC1)C(O)C2 (centres unmarked) [Compound 1]		≥ 800	≥ 800	≥ 800	≥ 800	≥ 800	≥ 800	156 ± 26.1	1.8	85.1 ± 22.1					
OC1C[N+]2(CCCCCCCCCC[N+]34CCC(CC3)C(O)C4)CCC1CC2 (centres unmarked) [Compound 7, 1,1’-(decano)bis(3-hydroxyquinuclidinium bromide)]		≥ 800	≥ 800	≥ 800	≥ 800	≥ 800	≥ 800	0.52 ± 0.05	0.3	1.6 ± 0.2					
ON=C1C[N+]2(CCCCCCCC[N+]34CCC(CC3)C(=NO)C4)CCC1CC2 [Compound 13, 1,1’-(octano)bis(3-hydroxyiminoquinuclidinium bromide)]		≥ 800	≥ 800	≥ 800	≥ 800	≥ 800	≥ 800	1.8 ± 0.07	0.5	3.4 ± 0.2					
CCCCCCCCCC[N+]12CCC(CC1)C(O)C2 (centres unmarked) [Compound 2]		≥ 800	≥ 800	≥ 537	≥ 800	≥ 800	≥ 800	63.8 ± 5.1	5.4	11.8 ± 1.1					
ON=C1C[N+]2(CCCCCCCCCC[N+]34CCC(CC3)C(=NO)C4)CCC1CC2 [Compound 14, 1,1’-(decano)bis(3-hydroxyiminoquinuclidinium bromide)]		≥ 800	≥ 800	≥ 800	≥ 800	≥ 800	≥ 800	0.26 ± 0.02	0.2	1.2 ± 0.06					around 60
